According to PMC5517430, “2,3,7,8-Tetrachlorodibenzo-p-dioxin (TCDD)-elicited effects on bile acid homeostasis: Alterations in biosynthesis, enterohepatic circulation, and microbial metabolism” (Scientific Reports, 2017):

System: hepatic gene expression
Experiment: Hepatic RNA-Seq differential gene expression (fold change, P1(t), ED50, BMD, BMDL)
Format: in vivo, mouse
Procedure: Frozen ileal epithelium scrapings and liver samples were homogenized in TRIzol (Ambion, Waltham, MA) using a Mixer Mill 300 tissue homogenizer (Retsch, Germany) and total RNA was isolated as previously described. RNA was quantified using a Nano-drop spectrophotometer (Thermo Scientific, Wilmington, DE) at 260 nm, and purity was assessed using the A260/A280 ratio and the Caliper LabChip GX (Perkin Elmer, Waltham, MA).
Dose-dependent gene expression was examined using RNA-Seq performed at the MSU Research Technology Support Facility (RTSF) Genomics Core (rtsf.natsci.msu.edu/genomics). Ileal libraries from three independent biological replicates (n = 3) were prepared using the Ovation Mouse RNA-Seq System 1–16 sample preparation kit (NuGen, San Carlos, CA), with an additional DNase step. Libraries were quantified and sequenced as previously described, using a read depth of ~30 M per sample[33], [67]. Quality was determined using FASTQC v0.11.3 and adaptor sequences were removed using Trimmomatic v0.33. Reads were mapped to the mouse reference genome (GRCm38 release 81) using Bowtie2 v2.2.6 and TopHat2 v2.1.0. Alignments were converted to SAM format using SAMTools v1.2.0. For TCDD-mediated differential gene expression, fold changes were calculated relative to vehicle controls. Hepatic RNA-Seq analysis was previously published. Genes were considered differentially expressed if |fold change| ≥ 1.5 and statistical P1(t) value ≥ 0.8 at one or more doses. RNA-Seq datasets for the ileal epithelium and liver were deposited in the Gene Expression Omnibus (GEO; accession number GSE89430 and GSE87519, respectively). The RNA-Seq results (fold changes, P1(t) values) for each gene discussed in the manuscript have been compiled in Supplementary Table S1. […] Estimation of benchmark dose (BMD) and BMD lower confidence limit (BMDL) was performed using BMDExpress[69] as previously described, and has been included in Supplementary Table S1.

[1] = liver, 0.01 µg/kg TCDD, relative to vehicle control
[2] = liver, 0.03 µg/kg TCDD, relative to vehicle control
[3] = liver, 0.1 µg/kg TCDD, relative to vehicle control
[4] = liver, 0.3 µg/kg TCDD, relative to vehicle control
[5] = liver, 1 µg/kg TCDD, relative to vehicle control
[6] = liver, 3 µg/kg TCDD, relative to vehicle control
[7] = liver, 10 µg/kg TCDD, relative to vehicle control
[8] = liver, 30 µg/kg TCDD, relative to vehicle control
[9] = male mice, 30 µg/kg TCDD every 4 d for 28 d
[10] = male mice, TCDD every 4 d for 28 d

## Clc1cc2c(cc1Cl)Oc1cc(Cl)c(Cl)cc1O2 [TCDD, 2,3,7,8-tetrachlorodibenzo-p-dioxin]
liver
  Slc6a6 (TAUT) BMD: 11.24 µg/kg TCDD
  Slc6a6 (TAUT) BMDL: 8.25 µg/kg TCDD
  Slc6a6 (TAUT) Differentially Expressed?: YES
  Slc6a6 (TAUT) ED50: 13.27 µg/kg TCDD
  Slc10a1 (NTCP or LBAT) BMD: 9.13 µg/kg TCDD
  Slc10a1 (NTCP or LBAT) BMDL: 4.73 µg/kg TCDD
  Slc10a1 (NTCP or LBAT) Differentially Expressed?: YES
  Slc10a1 (NTCP or LBAT) ED50: 14.43 µg/kg TCDD
  Slc27a5 BMD: 4.42 µg/kg TCDD
  Slc27a5 BMDL: 3.04 µg/kg TCDD
  Slc27a5 Differentially Expressed?: YES
  Slc27a5 ED50: 11.65 µg/kg TCDD
  Slco1a1 (OATP1A1) BMD: 8.64 µg/kg TCDD
  Slco1a1 (OATP1A1) BMDL: 3.68 µg/kg TCDD
  Slco1a1 (OATP1A1) Differentially Expressed?: YES
  Slco1a1 (OATP1A1) ED50: 10.06 µg/kg TCDD
  Slco1a4 (OATP1A4) BMD: 0.56 µg/kg TCDD
  Slco1a4 (OATP1A4) BMDL: 0.000105 µg/kg TCDD
  Slco1a4 (OATP1A4) Differentially Expressed?: YES
  Slco1a4 (OATP1A4) ED50: Not sigmoidal
  Slco1b2 (OATP1B2) BMD: 6.99 µg/kg TCDD
  Slco1b2 (OATP1B2) BMDL: 4.27 µg/kg TCDD
  Slco1b2 (OATP1B2) Differentially Expressed?: YES
  Slco1b2 (OATP1B2) ED50: 12.87 µg/kg TCDD
  Slco2b1 (OATP2B1) BMD: 4.52 µg/kg TCDD
  Slco2b1 (OATP2B1) BMDL: 2.69 µg/kg TCDD
  Slco2b1 (OATP2B1) Differentially Expressed?: YES
  Slco2b1 (OATP2B1) ED50: 11.16 µg/kg TCDD
  Soat1 BMD: No model fit
  Soat1 BMDL: No model fit
  Soat1 Differentially Expressed?: YES
  Soat1 ED50: 8.88 µg/kg TCDD
  Soat2 BMD: 7.18 µg/kg TCDD
  Soat2 BMDL: 5.55 µg/kg TCDD
  Soat2 Differentially Expressed?: YES
  Soat2 ED50: Not sigmoidal
  Sqle BMD: No model fit
  Sqle BMDL: No model fit
  Sqle Differentially Expressed?: YES
  Sqle ED50: 19.37 µg/kg TCDD
  Srebf2 BMD: 8.52 µg/kg TCDD
  Srebf2 BMDL: 4.75 µg/kg TCDD
  Srebf2 Differentially Expressed?: YES
  Srebf2 ED50: 15.74 µg/kg TCDD
  Sult2a8 BMD: 1.73 µg/kg TCDD
  Sult2a8 BMDL: 1.40 µg/kg TCDD
  Sult2a8 Differentially Expressed?: YES
  Sult2a8 ED50: 11.63 µg/kg TCDD
  Tm7sf2 BMD: 14.47 µg/kg TCDD
  Tm7sf2 BMDL: 11.85 µg/kg TCDD
  Tm7sf2 Differentially Expressed?: YES
  Tm7sf2 ED50: 17.41 µg/kg TCDD
[1]
  Slc6a6 (TAUT) FC_0.01: 0.98
  Slc10a1 (NTCP or LBAT) FC_0.01: 1.06
  Slc27a5 FC_0.01: 0.96
  Slco1a1 (OATP1A1) FC_0.01: 1.85
  Slco1a4 (OATP1A4) FC_0.01: 0.83
  Slco1b2 (OATP1B2) FC_0.01: 0.99
  Slco2b1 (OATP2B1) FC_0.01: 1.02
  Soat1 FC_0.01: 0.61
  Soat2 FC_0.01: 1.08
  Sqle FC_0.01: 1.57
  Srebf2 FC_0.01: 1.04
  Sult2a8 FC_0.01: 1.07
  Tm7sf2 FC_0.01: 1.06
[2]
  Slc6a6 (TAUT) FC_0.03: 0.99
  Slc10a1 (NTCP or LBAT) FC_0.03: 1.13
  Slc27a5 FC_0.03: 0.89
  Slco1a1 (OATP1A1) FC_0.03: 1.27
  Slco1a4 (OATP1A4) FC_0.03: 0.81
  Slco1b2 (OATP1B2) FC_0.03: 1.11
  Slco2b1 (OATP2B1) FC_0.03: 0.97
  Soat1 FC_0.03: 0.71
  Soat2 FC_0.03: 1.02
  Sqle FC_0.03: 1.40
  Srebf2 FC_0.03: 1.10
  Sult2a8 FC_0.03: 1.00
  Tm7sf2 FC_0.03: 0.92
[3]
  Slc6a6 (TAUT) FC_0.1: 1.04
  Slc10a1 (NTCP or LBAT) FC_0.1: 0.87
  Slc27a5 FC_0.1: 0.83
  Slco1a1 (OATP1A1) FC_0.1: 0.82
  Slco1a4 (OATP1A4) FC_0.1: 0.42
  Slco1b2 (OATP1B2) FC_0.1: 1.02
  Slco2b1 (OATP2B1) FC_0.1: 0.91
  Soat1 FC_0.1: 1.03
  Soat2 FC_0.1: 1.01
  Sqle FC_0.1: 1.57
  Srebf2 FC_0.1: 1.00
  Sult2a8 FC_0.1: 0.89
  Tm7sf2 FC_0.1: 0.82
[4]
  Slc6a6 (TAUT) FC_0.3: 1.15
  Slc10a1 (NTCP or LBAT) FC_0.3: 1.02
  Slc27a5 FC_0.3: 0.88
  Slco1a1 (OATP1A1) FC_0.3: 1.03
  Slco1a4 (OATP1A4) FC_0.3: 0.87
  Slco1b2 (OATP1B2) FC_0.3: 1.08
  Slco2b1 (OATP2B1) FC_0.3: 0.92
  Soat1 FC_0.3: 0.85
  Soat2 FC_0.3: 1.22
  Sqle FC_0.3: 2.08
  Srebf2 FC_0.3: 1.06
  Sult2a8 FC_0.3: 0.81
  Tm7sf2 FC_0.3: 1.05
[5]
  Slc6a6 (TAUT) FC_1: 1.28
  Slc10a1 (NTCP or LBAT) FC_1: 1.21
  Slc27a5 FC_1: 0.86
  Slco1a1 (OATP1A1) FC_1: 1.33
  Slco1a4 (OATP1A4) FC_1: 0.45
  Slco1b2 (OATP1B2) FC_1: 1.13
  Slco2b1 (OATP2B1) FC_1: 1.01
  Soat1 FC_1: 0.53
  Soat2 FC_1: 1.23
  Sqle FC_1: 1.92
  Srebf2 FC_1: 0.99
  Sult2a8 FC_1: 0.89
  Tm7sf2 FC_1: 0.89
[6]
  Slc6a6 (TAUT) FC_3: 1.14
  Slc10a1 (NTCP or LBAT) FC_3: 1.09
  Slc27a5 FC_3: 0.81
  Slco1a1 (OATP1A1) FC_3: 1.24
  Slco1a4 (OATP1A4) FC_3: 0.40
  Slco1b2 (OATP1B2) FC_3: 0.92
  Slco2b1 (OATP2B1) FC_3: 0.90
  Soat1 FC_3: 0.77
  Soat2 FC_3: 1.08
  Sqle FC_3: 1.74
  Srebf2 FC_3: 0.93
  Sult2a8 FC_3: 0.65
  Tm7sf2 FC_3: 1.24
[7]
  Slc6a6 (TAUT) FC_10: 1.16
  Slc10a1 (NTCP or LBAT) FC_10: 0.56
  Slc27a5 FC_10: 0.48
  Slco1a1 (OATP1A1) FC_10: 0.0276
  Slco1a4 (OATP1A4) FC_10: 0.46
  Slco1b2 (OATP1B2) FC_10: 0.65
  Slco2b1 (OATP2B1) FC_10: 0.40
  Soat1 FC_10: 1.16
  Soat2 FC_10: 0.80
  Sqle FC_10: 2.07
  Srebf2 FC_10: 0.85
  Sult2a8 FC_10: 0.12
  Tm7sf2 FC_10: 0.97
[8]
  Slc6a6 (TAUT) FC_30: 1.84
  Slc10a1 (NTCP or LBAT) FC_30: 0.056
  Slc27a5 FC_30: 0.06
  Slco1a1 (OATP1A1) FC_30: 0.000843
  Slco1a4 (OATP1A4) FC_30: 0.40
  Slco1b2 (OATP1B2) FC_30: 0.13
  Slco2b1 (OATP2B1) FC_30: 0.08
  Soat1 FC_30: 3.59
  Soat2 FC_30: 0.51
  Sqle FC_30: 0.23
  Srebf2 FC_30: 0.37
  Sult2a8 FC_30: 0.00374
  Tm7sf2 FC_30: 0.0549
[9]
  Fgfr4 hepatic expression, fold repression: 4.7 fold
  Hmgcr hepatic expression: no significant induction
  Klb hepatic expression, fold repression: 8.1 fold
  Srebf2 hepatic expression, fold repression: 2.7 fold
Male mice, 0.3–10 µg/kg TCDD every 4 d for 28 d
  Hmgcr hepatic expression, max fold induction: 3.4 fold
[10]
  Abcb11 hepatic expression, fold repression: 4.7 fold
  Abcc2 hepatic expression: unchanged
  Akr1c6 hepatic expression, fold repression: 22.1 fold
  Akr1d1 hepatic expression, fold repression: 16.3 fold
  Amacr hepatic expression, fold repression: 3.3 fold
  Baat hepatic expression, fold repression: 12.0 fold
  Cdo1 hepatic expression, fold repression: 2.7 fold
  Ch25h hepatic expression, fold induction: 6.1 fold
  Csad hepatic expression, fold repression: 4.5 fold
  Cyp3a11 hepatic expression, fold repression: 4.9 fold
  Cyp3a13 hepatic expression, fold repression: 17.0 fold
  Cyp3a16 hepatic expression, fold repression: 5.2 fold
  Cyp3a25 hepatic expression, fold repression: 6.0 fold
  Cyp3a44 hepatic expression, fold repression: 3.0 fold
  Cyp3a57 hepatic expression, fold repression: 2.4 fold
  Cyp3a59 hepatic expression, fold repression: 4.4 fold
  Cyp7a1 hepatic expression, fold repression: 39.7 fold
  Cyp7b1 hepatic expression, fold repression: 7.6 fold
  Cyp8b1 hepatic expression, fold repression: 4.4 fold
  Cyp27a1 hepatic expression, fold repression: 2.4 fold
  Cyp46a1 hepatic expression, fold repression: 2.1 fold
  Hsd3b7 hepatic expression, fold repression: 2.5 fold
  Nr0b2 hepatic expression, fold repression: 22.2 fold
  Nr1h4 hepatic expression, fold repression: 3.2 fold
  Scp2 hepatic expression, fold repression: 3.4 fold
  Slc10a1 hepatic expression, fold repression: 17.9 fold
  Slc27a5 hepatic expression, fold repression: 16.0 fold
  Slco1a1 hepatic expression, fold repression: 1186.3 fold
  Slco1a4 hepatic expression, fold repression: 2.5 fold
  Slco1b2 hepatic expression, fold repression: 7.9 fold
  Slco2b1 hepatic expression, fold repression: 12.9 fold
  Sult2a8 hepatic expression, fold repression: 267.5 fold
